Test results reported in US20090124644A1, “HIV INHIBITING 2-(4-CYANOPHENYLAMINO) PYRIMIDINE DERIVATIVES” (priority 2005, published 2009).

Tests used:
Assay type in all cases: cell-based
[1] = test system: Strain IIIB, wild type HIV-LAI strain; assay: Antiviral spectrum, cellular assay, strain IIIB; conditions: Human immunodeficiency virus 1
Experimental: (§1) Because of the increasing emergence of drug resistant HIV strains, the present compounds were tested for their potency against clinically isolated HIV strains harboring several mutations. These mutations are associated with resistance to reverse transcriptase inhibitors and result in viruses that show various degrees of phenotypic cross-resistance to the currently commercially available drugs such as for instance AZT and delavirdine.
(§2) The antiviral activity of the compound of the present invention has been evaluated in the presence of wild type HIV and HIV mutants bearing mutations at the reverse transcriptase gene. The activity of the compounds is evaluated using a cellular assay and the residual activity is expressed in pEC50 values. The columns IIIB and A-G in the table list the pEC50 values against various strains IIIB, A-G.
(§3) Strain IIIB is wild type HIV-LAI strain Strain A contains mutation Y181C in HIV reverse transcriptase, Strain B contains mutation V106A in HIV reverse transcriptase, Strain C contains mutation L100I in HIV reverse transcriptase, Strain D contains mutation Y188L in HIV reverse transcriptase, Strain E contains mutations L100I and K103N in HIV reverse transcriptase, Strain F contains mutations K103N and Y181C in HIV reverse transcriptase.

[2] = test system: Strain A, mutation Y181C in HIV reverse transcriptase; assay: Antiviral spectrum, cellular assay, strain A; conditions: Human immunodeficiency virus 1, read-out: pEC50 A (converted)
Experimental: as §1, §2, §3

[3] = test system: Strain B, mutation V106A in HIV reverse transcriptase; assay: Antiviral spectrum, cellular assay, strain B; conditions: Human immunodeficiency virus 1, read-out: pEC50 B (converted)
Experimental: as §1, §2, §3

[4] = test system: Strain C, mutation L100I in HIV reverse transcriptase; assay: Antiviral spectrum, cellular assay, strain C; conditions: Human immunodeficiency virus 1, read-out: pEC50 C (converted)
Experimental: as §1, §2, §3

[5] = test system: Strain D, mutation Y188L in HIV reverse transcriptase; assay: Antiviral spectrum, cellular assay, strain D; conditions: Human immunodeficiency virus 1, read-out: pEC50 D (converted)
Experimental: as §1, §2, §3

[6] = test system: Strain E, mutations L100I and K103N in HIV reverse transcriptase; assay: Antiviral spectrum, cellular assay, strain E; conditions: Human immunodeficiency virus 1, read-out: pEC50 E (converted)
Experimental: as §1, §2, §3

[7] = test system: Strain F, mutations K103N and Y181C in HIV reverse transcriptase; assay: Antiviral spectrum, cellular assay, strain F; conditions: Human immunodeficiency virus 1, read-out: pEC50 F (converted)
Experimental: as §1, §2, §3

SMILES	EC50 [1]	EC50 [2]	EC50 [3]	EC50 [4]	EC50 [5]	EC50 [6]	EC50 [7]
Cc1cc(C#N)cc(C)c1Nc1nc(Nc2ccc(C#N)cc2)nc(N)c1Br [Compound 1]	0.631 nM	3.98 nM	0.398 nM	0.794 nM	0.794 nM	3.98 nM	3.98 nM
Cc1cc(C#N)cc(C)c1[S+]([O-])c1nc(Nc2ccc(C#N)cc2)nc(N)c1Br (stereo not drawn) [Compound 3]	5.01 nM	79.4 nM	7.94 nM	1580 nM	39.8 nM	6310 nM	251 nM
N#Cc1ccc(Nc2nc(N)c(Br)c(Sc3c(C#N)cc(C#N)cc3C#N)n2)cc1 [Compound 2]	3.16 nM	15.8 nM	3.16 nM	20 nM	3.98 nM	7.94 nM	20 nM
